# Results as given in patent US9364475B2, “Tablet formulation of a phosphatidylinositol 3-kinase inhibitor” (Sanofi, priority 2012, dated 2016).
# Key:
# [1] = test system: human xenograft tumor models; settings: multiple human xenograft tumor models; cited from earlier work
# [2] = target: PI3K (phosphatidylinositol 3-kinase) (Homo sapiens, UniProt P42336); settings: cited from earlier work
# PI3K signaling pathway = settings: cell lines in vitro and human xenograft tumor tissue in vivo; cited from earlier work
# [3] = stability comparison of polymorphic forms; format: physicochemical; settings: solid state, polymorphic forms of Compound (I)
# PI3K (phosphatidylinositol 3-kinase), sequence (P42336 whole entry): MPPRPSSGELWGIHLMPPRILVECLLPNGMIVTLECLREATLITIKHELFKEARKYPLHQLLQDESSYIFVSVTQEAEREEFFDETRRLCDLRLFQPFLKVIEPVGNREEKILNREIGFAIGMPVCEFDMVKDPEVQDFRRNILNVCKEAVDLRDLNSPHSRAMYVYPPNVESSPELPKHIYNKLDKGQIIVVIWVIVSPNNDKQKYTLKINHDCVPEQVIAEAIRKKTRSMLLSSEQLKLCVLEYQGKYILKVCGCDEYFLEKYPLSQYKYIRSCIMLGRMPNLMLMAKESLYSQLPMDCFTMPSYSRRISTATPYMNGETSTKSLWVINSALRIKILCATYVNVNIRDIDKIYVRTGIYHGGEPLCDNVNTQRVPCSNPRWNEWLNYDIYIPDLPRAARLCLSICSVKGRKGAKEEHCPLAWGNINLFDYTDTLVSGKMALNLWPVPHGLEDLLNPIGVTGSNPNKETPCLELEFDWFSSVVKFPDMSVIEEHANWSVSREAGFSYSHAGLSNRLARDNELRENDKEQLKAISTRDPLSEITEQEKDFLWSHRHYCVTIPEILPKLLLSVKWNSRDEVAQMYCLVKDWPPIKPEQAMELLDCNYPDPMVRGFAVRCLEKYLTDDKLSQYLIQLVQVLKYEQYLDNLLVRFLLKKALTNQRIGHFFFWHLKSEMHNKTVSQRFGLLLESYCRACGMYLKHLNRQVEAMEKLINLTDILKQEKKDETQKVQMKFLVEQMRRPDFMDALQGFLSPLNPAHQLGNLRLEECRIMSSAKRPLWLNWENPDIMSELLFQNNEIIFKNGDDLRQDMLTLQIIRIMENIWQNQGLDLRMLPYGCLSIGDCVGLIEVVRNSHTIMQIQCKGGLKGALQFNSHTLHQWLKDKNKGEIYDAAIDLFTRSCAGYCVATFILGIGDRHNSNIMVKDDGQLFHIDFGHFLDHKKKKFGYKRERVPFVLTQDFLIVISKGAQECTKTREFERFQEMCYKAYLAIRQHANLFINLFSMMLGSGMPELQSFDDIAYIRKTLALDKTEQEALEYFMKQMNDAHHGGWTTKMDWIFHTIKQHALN
# PI3K (phosphatidylinositol 3-kinase), sequence (P27986 whole entry partner): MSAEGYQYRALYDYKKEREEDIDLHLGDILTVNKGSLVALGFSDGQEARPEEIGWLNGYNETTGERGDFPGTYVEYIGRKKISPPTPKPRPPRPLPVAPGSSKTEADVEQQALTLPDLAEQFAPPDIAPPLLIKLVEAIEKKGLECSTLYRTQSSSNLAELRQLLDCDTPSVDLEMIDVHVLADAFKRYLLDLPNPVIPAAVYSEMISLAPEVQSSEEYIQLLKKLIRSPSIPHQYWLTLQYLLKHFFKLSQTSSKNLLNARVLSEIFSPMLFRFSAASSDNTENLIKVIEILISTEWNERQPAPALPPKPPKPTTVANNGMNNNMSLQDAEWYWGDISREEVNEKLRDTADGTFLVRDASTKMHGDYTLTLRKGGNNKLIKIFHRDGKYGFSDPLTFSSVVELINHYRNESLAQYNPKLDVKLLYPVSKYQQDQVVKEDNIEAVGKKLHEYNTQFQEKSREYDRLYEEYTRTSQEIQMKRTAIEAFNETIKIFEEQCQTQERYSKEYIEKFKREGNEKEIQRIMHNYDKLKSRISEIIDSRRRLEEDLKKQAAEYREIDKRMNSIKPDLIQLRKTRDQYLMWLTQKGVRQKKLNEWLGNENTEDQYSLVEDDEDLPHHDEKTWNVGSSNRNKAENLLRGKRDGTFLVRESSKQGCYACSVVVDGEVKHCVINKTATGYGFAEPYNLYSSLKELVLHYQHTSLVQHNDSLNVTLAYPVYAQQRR
stability among the polymorphic forms evaluated [3],SMILES,tumor growth in human xenograft tumor models [1],inhibition of PI3K [2],phosphorylation of multiple downstream components of the PI3K signaling pathway (PI3K signaling pathway)
–,"COc1ccc(Cl)c(Nc2nc3ccccc3[nH]/c2=N\S(=O)(=O)c2cccc(NC(=O)C(C)(C)N)c2)c1 [Compound (I), N-(3-{[(2Z)-3-[(2-chloro-5-methoxyphenyl)amino]quinoxalin-2(1H)-ylidene]sulfamoyl}phenyl)-2-methylalaninamide]",tumor growth inhibition and tumor regression,potent and selective inhibitor,inhibits phosphorylation
most stable polymorphic form,"COc1ccc(Cl)c(Nc2nc3ccccc3nc2NS(=O)(=O)c2cccc(NC(=O)C(C)(C)N)c2)c1 [Polymorph E, N-(3-{[(2Z)-3-[(2-chloro-5-methoxyphenyl)amino]quinoxalin-2(1H)-ylidene]sulfamoyl}phenyl)-2-methylalaninamide]",–,–,–
